According to patent publication US10602743B2, “Method of inducing drought/salt tolerance using Bacillus megaterium” (Marrone Bio Innovations, Inc., priority 2012, dated 2020):

Assays:
Bacillus megaterium H491 = assay: Antibiotic susceptibility, antibiotic disks on Muller-Hinton medium; assay type: cell-based; set-up: key: +++ (very); ++ (somewhat); + (marginally); resistance is indicated by (−); conditions: antibiotic disk, 48-hour incubation at 25° C.
Description: (§1) Antibiotic susceptibility of Bacillus megaterium strains H491, J142 and M018 was tested using antibiotic disks on Muller-Hinton medium as described in PML Microbiological's technical data sheet #535.

Bacillus megaterium J142 = assay: as above; assay type: cell-based; set-up: key: +++ (very); ++ (somewhat); + (marginally); resistance is indicated by (−); conditions: antibiotic disk, 48-hour incubation at 25° C.
Description: as §1

Bacillus megaterium M018 = assay: as above; assay type: cell-based; set-up: key: +++ (very); ++ (somewhat); + (marginally); resistance is indicated by (−); conditions: antibiotic disk, 48-hour incubation at 25° C.
Description: as §1

[1] = test system: Bacillus megaterium strain H491; assay: Chemical sensitivity, Biolog Phenotypic Microarray; assay type: cell-based; conditions: Biolog Phenotypic Microarray; for Resistance of H491 observed in wells containing compound: at a maximum concentration of 4 ug; for H491 susceptible to compound: 25° C.
Vero cells = conditions: cited from earlier work

Row | Compound | Susceptibility degree of H491 (Bacillus megaterium H491) | Susceptibility degree of J142 (Bacillus megaterium J142) | Susceptibility degree of M018 (Bacillus megaterium M018) | Resistance of H491 observed in wells containing compound [1] | H491 susceptible to compound [1] | Cytotoxicity against Vero cells (50% inhibition of cell growth) (Vero cells)
1 | CC1(C)S[C@@H]2[C@H](NC(=O)[C@H](N)c3ccccc3)C(=O)N2[C@H]1C(=O)O [Ampicillin] | +++ | +++ | ++ | Resistance |  | 
2 | CO/N=C(\C(=O)N[C@@H]1C(=O)N2C(C(=O)O)=C(COC(N)=O)CS[C@H]12)c1ccco1 [Cefuroxime] | +++ | +++ | +++ |  | susceptible | 
3 | O=C(N[C@H](CO)[C@H](O)c1ccc([N+](=O)[O-])cc1)C(Cl)Cl [Chloramphenicol] | +++ | +++ | ++ |  |  | 
4 | O=C(O)c1cn(C2CC2)c2cc(N3CCNCC3)c(F)cc2c1=O [Ciprofloxacin] | +++ | +++ | +++ |  |  | 
5 | CC[C@H]1OC(=O)[C@H](C)[C@@H](O[C@H]2C[C@@](C)(OC)[C@@H](O)[C@H](C)O2)[C@H](C)[C@@H](O[C@@H]2O[C@H](C)C[C@H](N(C)C)[C@H]2O)[C@](C)(O)C[C@@H](C)C(=O)[C@H](C)[C@@H](O)[C@]1(C)O [Erythromycin] | +++ | +++ | +++ |  | susceptible | 
6 | C[C@@H](O)[C@H]1C(=O)N2C(C(=O)O)=C(SCCN=CN)C[C@H]12 [Imipenem] | +++ | +++ | +++ |  |  | 
7 | NC[C@H]1O[C@H](O[C@H]2[C@H](O)[C@@H](O[C@H]3O[C@H](CO)[C@@H](O)[C@H](N)[C@H]3O)[C@H](N)C[C@@H]2N)[C@H](O)[C@@H](O)[C@@H]1O [Kanamycin] | +++ | +++ | +++ |  |  | 
8 | Nc1ncnc2c1ncn2[C@@H]1O[C@H](CO)[C@H]1CO [Oxetanocin, 9-[(2R,3R,4S)-3,4-bis(hydroxymethyl)-2-oxetanyl]adenine] |  |  |  |  |  | 132.6 μg/well
9 | CN(C)[C@@H]1C(O)=C(C(N)=O)C(=O)[C@@]2(O)C(O)=C3C(=O)c4c(O)cccc4[C@@](C)(O)[C@H]3[C@H](O)[C@@H]12 [Oxytetracycline] | +++ | +++ | +++ |  |  | 
10 | CCN1CCN(C(=O)N[C@@H](C(=O)N[C@@H]2C(=O)N3[C@@H]2SC(C)(C)[C@@H]3C(=O)O)c2ccccc2)C(=O)C1=O [Piperacillin] | +++ | + | ++ |  |  | 
11 | [H]/N=C(/N)N[C@H]1[C@H](O)[C@@H](O)[C@H](O[C@@H]2O[C@@H](C)[C@](O)(C=O)[C@H]2O[C@@H]2O[C@@H](CO)[C@H](O)[C@@H](O)[C@@H]2NC)[C@@H](N/C(N)=N\[H])[C@@H]1O [Streptomycin] | +++ | +++ | + |  | susceptible | 
12 | CN(C)[C@@H]1C(O)=C(C(N)=O)C(=O)[C@@]2(O)C(O)=C3C(=O)c4c(O)cccc4[C@@](C)(O)[C@H]3C[C@@H]12 [Tetracycline] | +++ | +++ | +++ |  |  | 
13 | Gentamicin | +++ | +++ | +++ | Resistance |  | 
14 | Penicillin | +++ | − | ++ |  |  | 
